“Also recorded” adds a separate entry of the source.
System: Recombinant CysLite PTGES3
Assay: BME competition assay: labeling of CysLite PTGES3 at high BME competitor
Format: binding
Conditions: 200 uM compound, 500 uM BME
Description: Recombinant CysLite PTGES3 (1 μM, 50 mM Tris-HCl, pH 8.0, 150 mM NaCl) were incubated with 200 μM fragment (2% DMSO) and 500 μM or 1 mM BME at ambient temperature for 8 h. Reactions were quenched by the addition of formic acid to a final concentration of 0.4%. Labeling was determined by intact protein mass spectrometry.

| SMILES | % Labeling in presence of 500 uM BME competitor |
| --- | --- |
| CN(C)CCSSCCNC(=O)[C@@H]1CN(C(=O)c2cc(F)c(O)c(Cl)c2)C[C@H]1c1ccccc1 (racemic) [Compound 1] | 79.03% |

Same assay, conditions: 200 uM compound, 1 mM BME

| SMILES | % Labeling in presence of 1 mM BME competitor |
| --- | --- |
| CN(C)CCSSCCNC(=O)[C@@H]1CN(C(=O)c2cc(F)c(O)c(Cl)c2)C[C@H]1c1ccccc1 (racemic) [Compound 1] | 76.67% |

System: AR target genes, LNCaP cells
Assay: AR target gene mRNA levels in LNCaP cells by real-time PCR
Format: cell-based
Conditions: 100 μM, 48 h, mRNA over 18s rRNA
Description: RNA was collected, indicated genes mRNA levels over 18s rRNA were measured by real-time PCR (n=3 as biological replicates; Mean±SEM).

| SMILES | Expression of AR target genes |
| --- | --- |
| COC(=O)[C@@H]1CN(C(=O)c2cc(F)c(O)c(Cl)c2)C[C@H]1c1ccccc1 (racemic) [Compound 2] | significantly reduced |

System: not listed separately
Assay: Parallel artificial membrane permeability assay (PAMPA)
Format: in vitro ADME
Conditions: not given

| SMILES | PAMPA assay |
| --- | --- |
| COC(=O)[C@@H]1CN(C(=O)c2cc(F)c(O)c(Cl)c2)C[C@H]1c1ccccc1 (racemic) [Compound 2] | Permeable |

System: PTGES3 enhanced AR/ARE binding
Assay: AR/ARE gel shift (EMSA) assay
Format: biochemical
Conditions: DHT+ buffer, free ARE DNA detected by SYBR gold
Description: The reactions were then loaded on a DNA retardation gel. ARE DNA bands were detected by SYBR gold. […] Experiment was performed twice to determine reproducibility.
Electrophoretic mobility shift assays (EMSA) were performed using recombinant AR protein (EMD Millipore) and 3×ARE dsDNA from the ARR3TK plasmid. Protein-DNA complexes were allowed to incubate in room temperature for 30 min in loading buffer (20 mM HEPES, 100 mM KCl, 2 ng/ml poly(dI-dC), 10% glycerol, and 20 nM DHT), followed by electrophoresis on 6% DNA Retardation Gels in TBE buffer (PH 8.0). Visualization of protein-DNA complexes was performed with SYBR Gold DNA staining dye (Invitrogen).

| SMILES | PTGES3 enhanced AR/ARE binding (gel shift) |
| --- | --- |
| CN(C)CCSSCCNC(=O)[C@@H]1CN(C(=O)c2cc(F)c(O)c(Cl)c2)C[C@H]1c1ccccc1 (racemic) [Compound 1] | inhibited PTGES3 enhanced AR/ARE binding; also recorded: increases the free ARE levels |

System: Recombinant CysLite PTGES3
Assay: Differential scanning fluorimetry (thermal shift) of fully labeled CysLite PTGES3
Format: binding
Conditions: cyslite PTGES3 fully labeled with compound
Description: Recombinant […] PTGES3 at a concentration of 8 μM in 50 mM HEPES pH 7.5, 150 mM NaCl were incubated with compounds or DMSO for unlabeled comparisons, at ambient temperature until complete labeling was observed by intact protein mass spectrometry. 7K Zeba Desalting columns (ThermoFisher) were used to remove excess compound. The Zeba 7K columns were first preequilibrated with 50 mM HEPES (pH 7.5), 150 mM NaCl. Sypro Orange (500x, DMSO) was added to the purified protein-small molecule conjugates to a final concentration of 5x Sypro Orange. These DSF assays were performed in triplicate in white 96-well plates. The plate was sealed with optically clear PCR sealing film (USA Scientific). The thermal shift assay was performed on a Bio-Rad CFX qPCR instrument. The temperature was increased from 23° C. to 95° C. at a rate of 0.5° C./s. After each temperature step, fluorescence was monitored with an excitation of 492 nm and emission of 610 nm. Raw fluorescence values were normalized between 0 and 1 and fit to a Boltzman equation using GraphPad Prism with the maximum value of the fit constrained to 1.

| SMILES | Thermal Shift (Cyslite PTGES3) ΔTm |
| --- | --- |
| C=CS(=O)(=O)N[C@@H]1CN(C(=O)c2cccc(S(N)(=O)=O)c2)C[C@H]1c1ccccc1 [Compound 11] | ΔTm + 0.4 °C |
| C=CS(=O)(=O)NCCNC(=O)[C@@H]1CN(C(=O)c2ccc(S(N)(=O)=O)c(F)c2)C[C@H]1c1ccccc1 [Compound 13] | No stabilization |
| C=CS(=O)(=O)N[C@@H]1CN(C(=O)c2cc(F)c(O)c(Cl)c2)C[C@H]1c1ccccc1 [Compound 3] | ΔTm + 3.3 °C |
| C=CS(=O)(=O)N[C@@H]1CN(C(=O)c2ccc(S(=O)(=O)NC)cc2)C[C@H]1c1ccccc1 [Compound 7] | ΔTm + 2.1 C. ° C. |
| C=CS(=O)(=O)NC1CN(C(=O)[C@@H]2CN(C(=O)c3ccc(S(N)(=O)=O)c(F)c3)C[C@H]2c2ccccc2)C1 [Compound 14] | No stabilization |
| CN(C)CCSSCCNC(=O)[C@@H]1CN(C(=O)c2cc(F)c(O)c(Cl)c2)C[C@H]1c1ccccc1 (racemic) [Compound 1] | confirmed by DSF to stabilize CysLite PTGES3 |

Same assay, conditions: cyslite PTGES3 fully labeled with compound; listed as compound 1

| SMILES | Thermal Shift (Cyslite PTGES3) ΔTm |
| --- | --- |
| CN(C)CCSSCCNC(=O)[C@@H]1CN(C(=O)c2cc(F)c(O)c(Cl)c2)C[C@H]1c1ccccc1 (racemic) [Compound 1] | 1.6 °C |

Target: T1, Recombinant CysLite PTGES3 (cysteine 76) (Homo sapiens, UniProt Q15185)
T1 sequence (Q15185 1-160): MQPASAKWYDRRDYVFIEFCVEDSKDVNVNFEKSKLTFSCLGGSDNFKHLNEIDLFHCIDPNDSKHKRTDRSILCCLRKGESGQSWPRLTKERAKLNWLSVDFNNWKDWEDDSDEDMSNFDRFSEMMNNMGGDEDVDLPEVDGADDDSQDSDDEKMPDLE
Assay: Dose response assay: labeling of recombinant CysLite PTGES3 by intact protein mass spectrometry
Format: binding
Conditions: 100 uM BME, 1 μM protein, 1 h ambient temperature; read-out: EC50 with 100 uM BME competitor (half maximal labeling of cyslite PTGES3)
Description: Recombinant CysLite PTGES3 (1 μM, 50 mM Tris-HCl, pH 8.0, 150 mM NaCl and 100 μM βME) were incubated for 1 h at ambient temperature with lead fragments (4% DMSO) in a 7-, 8- or 9-point threefold serial dilution series in duplicate. Reactions were quenched by the addition of formic acid to a final concentration of 0.4%. Labeling was determined by intact protein mass spectrometry.

| SMILES | EC50 |
| --- | --- |
| CN(C)CCSSCCNC(=O)[C@@H]1CN(C(=O)c2cc(F)c(O)c(Cl)c2)C[C@H]1c1ccccc1 (racemic) [Compound 1] | 70.6 µM |

System: AR-independent PC3 cells
Assay: Cell growth of AR-independent PC3 cells
Format: cell-based
Conditions: not given
Description: (§1) Normalized to DMSO and analyzed by IncuCyte system (n=3 as biological replicates; Mean±SEM).
Fold change of cell count normalized over day 0 was analyzed by IncuCyte system (n=3 as biological replicates; Mean SEM). Unpaired two-tailed t-test was used to determine statistical significance (ns=no significant difference; *** P<0.001).

| SMILES | Growth of AR-independent PC3 (AR−) cells |
| --- | --- |
| COC(=O)[C@@H]1CN(C(=O)c2cc(F)c(O)c(Cl)c2)C[C@H]1c1ccccc1 (racemic) [Compound 2] | not AR-independent PC3 cells; also recorded: not AR− negative cell lines |

System: AR protein levels, LNCaP cells
Assay: AR protein levels in LNCaP cells by western blotting
Format: cell-based
Conditions: 100 μM, 48 h, nuclear AR, western blot
Description: Nuclear AR and TBP levels were detected by western blotting. Each western blot experiment was performed twice to determine reproducibility.

| SMILES | AR protein levels |
| --- | --- |
| COC(=O)[C@@H]1CN(C(=O)c2cc(F)c(O)c(Cl)c2)C[C@H]1c1ccccc1 (racemic) [Compound 2] | significantly reduced |

System: AR+ LNCaP cells
Assay: Cell growth of AR+ LNCaP cells
Format: cell-based
Conditions: not given
Description: as §1
(§2) Compounds were tested at 100 uM for the ability to label cysteine 76 of cyslite PTGES3. In some cases labeling was not detected. Cyslite PTGES3 was then fully labeled with the compounds and the thermal shift values of the fully labeled protein was determined with stabilization values indicated below. […] Finally, select compounds were tested to determine if they inhibited cell growth in AR+LNCaP cells.
LNCaP cell lines were grown in the RPMI 1640 medium (Gibco) supplemented with 10% fetal bovine serum (FBS; Gibco). Cells were grown in a humidified 5% CO2 incubator at 37° C.

| SMILES | Cell activity (inhibited cell growth in AR+ LNCaP cells) | AR + cell line activity (growth of AR-driven LNCaP cells) |
| --- | --- | --- |
| C=CS(=O)(=O)N[C@@H]1CN(C(=O)c2cccc(S(N)(=O)=O)c2)C[C@H]1c1ccccc1 [Compound 11] | Yes | – |
| COC(=O)[C@@H]1CN(C(=O)c2cc(F)c(O)c(Cl)c2)C[C@H]1c1ccccc1 (racemic) [Compound 2] | – | significantly reduced and inhibit cell proliferation in AR+ and Yes |
| C=CS(=O)(=O)NC1CN(C(=O)[C@@H]2CN(C(=O)c3ccc(S(N)(=O)=O)c(F)c3)C[C@H]2c2ccccc2)C1 [Compound 14] | No | – |

System: cysteine 76 of cyslite PTGES3
Assay: Labeling of cysteine 76 of cyslite PTGES3 at 100 uM compound
Format: binding
Conditions: 4 h
Description: as §2

| SMILES | 4 h labeling (100 uM) |
| --- | --- |
| C=CS(=O)(=O)N[C@@H]1CN(C(=O)c2cccc(S(N)(=O)=O)c2)C[C@H]1c1ccccc1 [Compound 11] | 17.84% |
| C=CS(=O)(=O)NCCNC(=O)[C@@H]1CN(C(=O)c2ccc(S(N)(=O)=O)c(F)c2)C[C@H]1c1ccccc1 [Compound 13] | Not detected |
| C=CS(=O)(=O)N[C@@H]1CN(C(=O)c2cc(F)c(O)c(Cl)c2)C[C@H]1c1ccccc1 [Compound 3] | 5.27% |
| C=CS(=O)(=O)N[C@@H]1CN(C(=O)c2ccc(S(=O)(=O)NC)cc2)C[C@H]1c1ccccc1 [Compound 7] | 7.21% |
| C=CS(=O)(=O)NC1CN(C(=O)[C@@H]2CN(C(=O)c3ccc(S(N)(=O)=O)c(F)c3)C[C@H]2c2ccccc2)C1 [Compound 14] | 7.18% |

Same assay, conditions: 24 h

| SMILES | 24 h labeling (100 uM) |
| --- | --- |
| C=CS(=O)(=O)N[C@@H]1CN(C(=O)c2cccc(S(N)(=O)=O)c2)C[C@H]1c1ccccc1 [Compound 11] | 72.62% |
| C=CS(=O)(=O)NCCNC(=O)[C@@H]1CN(C(=O)c2ccc(S(N)(=O)=O)c(F)c2)C[C@H]1c1ccccc1 [Compound 13] | 13.63% |
| C=CS(=O)(=O)N[C@@H]1CN(C(=O)c2cc(F)c(O)c(Cl)c2)C[C@H]1c1ccccc1 [Compound 3] | 28.15% |
| C=CS(=O)(=O)N[C@@H]1CN(C(=O)c2ccc(S(=O)(=O)NC)cc2)C[C@H]1c1ccccc1 [Compound 7] | 36.40% |
| C=CS(=O)(=O)NC1CN(C(=O)[C@@H]2CN(C(=O)c3ccc(S(N)(=O)=O)c(F)c3)C[C@H]2c2ccccc2)C1 [Compound 14] | 48.46% |

System: PTGES3-AR interaction
Assay: Far western blot of AR-PTGES3 interaction
Format: biochemical
Conditions: CysLite PTGES3 pre-modified with compound
Description: Flag-AR was loaded on a gel, transferred to membrane, and renatured. The membranes were incubated with recombinant CysLite PTGES3 protein or recombinant CysLite PTGES3 protein labeled with 1. The interaction was detected with PTGES3 antibody. […] Each blot experiment was performed twice to determine reproducibility.

| SMILES | PTGES3-AR interaction (far western blot) |
| --- | --- |
| CN(C)CCSSCCNC(=O)[C@@H]1CN(C(=O)c2cc(F)c(O)c(Cl)c2)C[C@H]1c1ccccc1 (racemic) [Compound 1] | ablated in vitro PTGES3-AR interaction; also recorded: disrupted the PTGS3-AR interaction |

Source: patent US20260014143A1, “Prostaglandin E synthase 3 (PTGES3) Inhibiting Compounds” (The Regents of the University of California, priority 2022, published 2026)
